What all share (assay): DTP human tumour cell line panel, 48 h
The subject of assay [1] is HCC-2998 colon.
Assay [2] relates to LOX IMVI melanoma.
Assay [3] has as its system DU-145 prostate.
Assay [4] deals with SK-OV-3 ovarian.
In assay [5] the test system is TK-10 renal.
The subject of assay [6] is RXF 393 renal.
Assay [7] deals with SK-MEL-5 melanoma.
The test system of assay [8] is NCI-H23 lung.
Assay [9] concerns M14 melanoma.
The subject of assay [10] is ACHN renal.
The subject of assay [11] is HCT-116 colon.
Assay [12] has as its system OVCAR-3 ovarian.
Assay [13] deals with MDA-MB-231 breast.
Assay [14] relates to HCT-15 colon.
Assay [15] deals with HL-60(TB) leukemia.
Assay [16] concerns EKVX NSCLC.
For assay [17], the system named is HOP-92 NSCLC.
For assay [18], the system named is MDA-MB-435.

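Tested at 5 concentrations; 48 h exposure; 96-well plates; endpoints linearly interpolated, else capped at highest concentration. Definition used: TGI = concentration required for complete inhibition of growth.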 A value given as a limit tells only on which side of the number the result lay.

In general, TGI refers to the concentration giving total growth inhibition. Higher therefore signals less potent growth arrest. As to `O=C1NNC(=O)C2C3c4ccccc4C(c4ccccc43)C12` (stereo unspecified), the TGI in assay [1], in [2], in assay [3], in [4], in assay [5] and in assay [6] was over 100 µM in each case. Further, the TGI in assay [7], in assay [8], in [9], in [10], in assay [11] and in assay [12] was over 100 µM in each case. The TGI in assay [13], in assay [14], in [15] and in assay [16] was over 100 µM each time.
For the compound `CNC(=O)N1CCN(C(=O)NC)CCN(C(=O)NC)CC1`, the TGI in assay [1], in [2], in assay [3], in assay [17], in [4] and in [5] was over 100 µM each time. The TGI in [6], in [7], in assay [8], in assay [9], in assay [10] and in assay [11] was over 100 µM throughout. The TGI in assay [13], in [14], in assay [15] and in [16] was over 100 µM each time.
Take `CC1CN=C(Nc2ccc(S(N)(=O)=O)cc2)S1` (stereo unspecified): the TGI in assay [1] is over 100 µM; in [2], over 10 µM; in assay [3], over 100 µM; in assay [17], over 100 µM; in assay [4], over 100 µM; in assay [5] it was over 100 µM. Also, the TGI in assay [7], in [8], in [9], in assay [10], in [11] and in assay [12] was over 100 µM throughout. Moreover, the TGI in assay [13], in assay [14], in assay [15] and in [16] was over 100 µM throughout.
Consider `CCN(CC)Cc1cc(Nc2ccnc3ccc4c(nnn4C)c23)ccc1O`, for which the TGI is 10.7 µM in assay [1]; 29.9 µM in assay [2]; 31.4 µM in assay [3]; 31.5 µM in [4]; 76 µM in [5]; 30.6 µM in assay [6]. Moreover, the TGI in [7] stood at 29.9 µM; in [8], 25.6 µM; in [9] it was 28.7 µM; in [10], 8.38 µM; in assay [11], 18.2 µM; in assay [12], 39.9 µM. The TGI in [13] was 44.6 µM; in assay [14] it was 13.5 µM; in assay [15] it was 50.6 µM; in [16], over 100 µM.
For the compound `Cc1cc(C)cc(Nc2nnc3n2S(=O)(=O)c2cc(C#N)c(Cl)cc2S3)c1`, the TGI in [2] stood at 9.03 µM; in assay [3] it was 12.5 µM; in assay [4], 21.9 µM; in [6], 3.26 µM; in assay [7], 20.7 µM; in [8], 4.35 µM. The TGI in assay [9] was found to be 28.2 µM; in assay [10], 10.7 µM; in assay [11], 6.37 µM; in assay [12] it was 3.34 µM; in [13], 12.8 µM; in assay [14] it was 8.16 µM. Further, the values for the TGI in assay [15], in assay [16] and in assay [18] were 19.4 µM, 21.2 µM and 10.4 µM, respectively.
Consider `O=C(c1ccc(Cl)cc1Cl)N(C(=O)N1CCCCC1)c1ccccc1`, for which the TGI in assay [2], in [3], in assay [4], in assay [5], in assay [6] and in [7] was over 100 µM each time. Also, the TGI in assay [8], in [9], in assay [10], in assay [11], in assay [12] and in [13] was over 100 µM in each case. The TGI in [14], in [15], in [16] and in assay [18] was over 100 µM each time.
Take `CCCCCCCCCCCCCCCCCc1cccc(OCOCCOC)c1CO`: the TGI in assay [1], in assay [17], in assay [4], in assay [5], in assay [6] and in assay [7] was over 100 µM throughout. Moreover, the TGI in [8], in assay [9], in assay [10], in [11], in [12] and in assay [13] was over 100 µM in each case. Also, the TGI in assay [14], in assay [15], in assay [16] and in [18] was over 100 µM each time.
